In paper PMC8120209, “Longitudinal evaluation of a novel BChE PET tracer as an early in vivo biomarker in the brain of a mouse model for Alzheimer disease” (Theranostics, 2021) one finds inhibition data, which are given here for one compound.

Assay in all cases: biochemical
Parameters in all cases: Eurofins SafetyScreen44 radioligand displacement, inhibition of control specific binding
Common to all, as to conditions: read-out: % Inhibition of Control Specific Binding, Mean
For orientation: In a radioligand displacement assay an active substance lowers the binding of a labelled ligand.

Assay [1] deals with T1, N neuronal α7 (h) (Homo sapiens, UniProt P36544).
T1 construct: gene CHRNA7
T1 sequence (P36544 whole entry): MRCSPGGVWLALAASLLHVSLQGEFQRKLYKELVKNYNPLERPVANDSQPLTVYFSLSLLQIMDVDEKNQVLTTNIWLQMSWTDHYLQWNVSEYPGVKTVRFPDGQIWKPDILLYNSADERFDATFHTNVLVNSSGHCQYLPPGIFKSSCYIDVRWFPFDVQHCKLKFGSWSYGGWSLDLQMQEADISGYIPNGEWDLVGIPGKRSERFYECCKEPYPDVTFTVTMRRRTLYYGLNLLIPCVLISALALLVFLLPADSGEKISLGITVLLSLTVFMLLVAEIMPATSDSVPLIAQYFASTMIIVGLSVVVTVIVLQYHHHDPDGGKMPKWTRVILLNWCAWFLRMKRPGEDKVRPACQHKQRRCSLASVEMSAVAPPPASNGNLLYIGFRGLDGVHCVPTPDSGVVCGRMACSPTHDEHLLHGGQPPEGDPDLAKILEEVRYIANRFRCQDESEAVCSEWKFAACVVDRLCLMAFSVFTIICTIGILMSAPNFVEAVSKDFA

The target of assay [2] is T2, N neuronal α4β2 (h) (Homo sapiens, UniProt P17787+P43681).
T2 construct: gene CHRNB2
T2 sequence (P17787 whole entry): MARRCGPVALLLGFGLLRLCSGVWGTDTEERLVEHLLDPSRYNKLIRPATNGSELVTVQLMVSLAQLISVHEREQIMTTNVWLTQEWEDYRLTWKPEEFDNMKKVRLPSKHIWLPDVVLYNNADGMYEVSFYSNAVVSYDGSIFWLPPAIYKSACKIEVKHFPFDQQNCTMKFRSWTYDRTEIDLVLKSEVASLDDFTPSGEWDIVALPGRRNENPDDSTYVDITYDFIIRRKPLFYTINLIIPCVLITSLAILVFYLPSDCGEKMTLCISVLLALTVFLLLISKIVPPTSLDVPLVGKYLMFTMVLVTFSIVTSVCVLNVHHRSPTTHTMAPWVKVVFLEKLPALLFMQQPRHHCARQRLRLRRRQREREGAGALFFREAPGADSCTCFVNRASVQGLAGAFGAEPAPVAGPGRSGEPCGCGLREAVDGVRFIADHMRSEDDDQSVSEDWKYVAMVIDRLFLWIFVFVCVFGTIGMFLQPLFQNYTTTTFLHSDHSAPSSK
T2 sequence (P43681 whole entry): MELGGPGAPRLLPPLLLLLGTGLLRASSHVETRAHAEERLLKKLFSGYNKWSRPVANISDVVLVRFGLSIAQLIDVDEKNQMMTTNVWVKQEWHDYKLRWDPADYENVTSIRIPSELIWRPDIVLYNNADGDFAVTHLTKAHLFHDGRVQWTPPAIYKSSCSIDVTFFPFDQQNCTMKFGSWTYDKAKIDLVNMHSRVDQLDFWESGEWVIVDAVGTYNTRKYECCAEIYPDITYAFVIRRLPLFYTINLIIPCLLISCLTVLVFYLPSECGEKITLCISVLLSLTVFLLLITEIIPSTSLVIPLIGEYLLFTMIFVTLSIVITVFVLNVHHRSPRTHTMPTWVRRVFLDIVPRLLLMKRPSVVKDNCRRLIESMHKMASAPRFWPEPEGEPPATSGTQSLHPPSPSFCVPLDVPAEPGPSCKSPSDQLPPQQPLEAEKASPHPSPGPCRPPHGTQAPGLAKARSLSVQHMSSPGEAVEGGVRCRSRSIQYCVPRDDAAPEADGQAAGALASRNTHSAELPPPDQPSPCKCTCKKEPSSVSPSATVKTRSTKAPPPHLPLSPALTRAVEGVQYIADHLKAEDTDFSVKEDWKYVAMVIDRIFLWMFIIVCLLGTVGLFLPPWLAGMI

The target of assay [3] is T3, sigma 1 (h) (Homo sapiens, UniProt Q99720).
T3 construct: gene SIGMAR1
T3 sequence (Q99720 whole entry): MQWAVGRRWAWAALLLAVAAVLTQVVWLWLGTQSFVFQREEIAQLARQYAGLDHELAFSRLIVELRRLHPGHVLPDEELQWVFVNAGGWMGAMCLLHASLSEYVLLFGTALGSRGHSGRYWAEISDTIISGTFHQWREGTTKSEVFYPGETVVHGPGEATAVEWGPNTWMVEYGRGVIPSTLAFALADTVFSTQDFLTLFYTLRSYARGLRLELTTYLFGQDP

In assay [4] the target is T4, 5-HT3(h) (Homo sapiens, UniProt P46098).
T4 construct: gene HTR3A
T4 sequence (P46098 whole entry): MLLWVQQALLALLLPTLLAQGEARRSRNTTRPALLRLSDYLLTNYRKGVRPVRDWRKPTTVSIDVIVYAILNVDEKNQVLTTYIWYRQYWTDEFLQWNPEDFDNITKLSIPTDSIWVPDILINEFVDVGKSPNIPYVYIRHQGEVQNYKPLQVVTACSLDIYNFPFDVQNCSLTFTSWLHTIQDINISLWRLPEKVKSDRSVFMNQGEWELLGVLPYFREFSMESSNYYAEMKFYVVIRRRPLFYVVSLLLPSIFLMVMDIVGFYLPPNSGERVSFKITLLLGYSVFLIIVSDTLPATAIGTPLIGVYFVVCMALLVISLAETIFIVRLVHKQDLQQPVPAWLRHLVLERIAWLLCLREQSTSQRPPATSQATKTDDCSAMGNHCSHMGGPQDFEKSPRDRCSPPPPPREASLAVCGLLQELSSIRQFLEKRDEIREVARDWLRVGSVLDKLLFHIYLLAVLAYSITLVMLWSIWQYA

Take `COCCN(CC1CCCN(Cc2ccccc2)C1)S(=O)(=O)c1ccc2ccccc2c1` (racemic) [compound 4, (±)N-((1-benzylpiperidin-3-yl)methyl)-N-(2-methoxyethyl)naphthalene-2-sulfonamide]: the inhibition (in general, the change of the read-out against control, counted positive when it falls) at 10 µM in assay [1] is 18.2%; in assay [2] it was -17.7%; in assay [3], 99.9%; in assay [4], -2.7%.
